The record followed here is ChEMBL document CHEMBL1126538, “A novel class of 1,3-oxathiolane nucleoside analogues having potent anti-HIV activity” (1993).

Molecules are shown by their SMILES. ≈ marks a conversion by molar mass, not a printed value.

One experiment relates to MT4. The experiment is described as follows: Compound was tested for its inhibitory concentration against HIV-1 in MT-4 cell line. Type of experiment: functional. The note with it: Homo sapiens, read-out: ID50 (the source's name).
In the case of `Nc1ccn(C2COC(CO)S2)c(=O)n1` (configuration not stated), the IC50 was greater than 10 µg/mL.

The test system of the next experiment is MT4. The experiment in a line: Cytotoxic activity against MT-4 cell line. Type of experiment: functional. As to conditions: Homo sapiens, read-out: CD50 (the source's name).
Take `Nc1ncnc2c1ncn2C1COC(CO)S1` (configuration not stated): the CC50 stood at 100 µg/mL (≈ 395 µM).

As for `Nc1ncnc2c1ncn2[C@@H]1COC(CO)S1` (some centres not stated), the CC50 was greater than 100 µg/mL.

On to `Nc1ncnc2c1ncn2[C@H]1CO[C@@H](CO)S1`, for which the CC50 worked out at 100 µg/mL (≈ 395 µM).

For the compound `O=c1[nH]cnc2c1ncn2[C@H]1CC[C@@H](CO)O1` [DIDANOSINE], the CC50 was found to be 100 µg/mL (≈ 423 µM).

Consider `O=c1ccn([C@@H]2COC(CO)S2)c(=O)[nH]1` (some centres not stated), for which the CC50 was greater than 100 µg/mL.

Take `Nc1ccn([C@@H]2CS[C@H](CO)O2)c(=O)n1` [LAMIVUDINE]: the CC50 is greater than 100 µg/mL.

`Nc1ccn([C@@H]2COC(CO)S2)c(=O)n1` (some centres not stated): the CC50 was greater than 100 µg/mL.

Take `Nc1nc(=O)n([C@@H]2COC(CO)S2)cc1F` (some centres not stated): the CC50 was greater than 100 µg/mL.

`Cc1cn(C2COC(CO)S2)c(=O)[nH]c1=O` (configuration not stated): the CC50 was greater than 100 µg/mL.

For the compound `Nc1nc(=O)n(C2COC(CO)S2)cc1F` (configuration not stated), the CC50 was greater than 100 µg/mL.

Take `Nc1ccn(C2COC(CO)S2)c(=O)n1` (configuration not stated): the CC50 was 10 µg/mL (≈ 43.6 µM).

`O=c1ccn(C2COC(CO)S2)c(=O)[nH]1` (configuration not stated): the CC50 is greater than 100 µg/mL.

For `Cc1cn([C@@H]2COC(CO)S2)c(=O)[nH]c1=O` (some centres not stated), the CC50 was greater than 100 µg/mL.

As to `Nc1nc(O)c2ncn(C3COC(CO)S3)c2n1` (configuration not stated), the CC50 was greater than 100 µg/mL.

With `Nc1ncnc2c1ncn2[C@@H]1CO[C@H](CO)S1`, the CC50 was 100 µg/mL (≈ 395 µM).

Turning to `Cc1cn([C@H]2C[C@H](N=[N+]=[N-])[C@@H](CO)O2)c(=O)[nH]c1=O` [ZIDOVUDINE], the CC50 is greater than 1 µg/mL.

The subject of the next experiment is MT4. The experiment in a line: Inhibitory concentration against HIV-1 in MT-4 cell line. Type of experiment: functional. As to conditions: Homo sapiens, read-out: ID50 (the source's name).
Regarding `Nc1ncnc2c1ncn2C1COC(CO)S1` (configuration not stated), the IC50 came to 2.1 µg/mL (≈ 8.29 µM).

In the case of `Nc1ncnc2c1ncn2[C@@H]1COC(CO)S1` (some centres not stated), the IC50 was greater than 100 µg/mL.

Consider `Nc1ncnc2c1ncn2[C@H]1CO[C@@H](CO)S1`, for which the IC50 was found to be 1.1 µg/mL (≈ 4.34 µM).

Turning to `O=c1[nH]cnc2c1ncn2[C@H]1CC[C@@H](CO)O1` [DIDANOSINE], the IC50 turned out to be 2.3 µg/mL (≈ 9.74 µM).

For `O=c1ccn([C@@H]2COC(CO)S2)c(=O)[nH]1` (some centres not stated), the IC50 was greater than 100 µg/mL.

Consider `Nc1ccn([C@@H]2CS[C@H](CO)O2)c(=O)n1` [LAMIVUDINE], for which the IC50 worked out at 0.13 µg/mL (≈ 0.567 µM).

For `Nc1ccn([C@@H]2COC(CO)S2)c(=O)n1` (some centres not stated), the IC50 was greater than 100 µg/mL.

With `Nc1nc(=O)n([C@@H]2COC(CO)S2)cc1F` (some centres not stated), the IC50 is greater than 100 µg/mL.

With `Cc1cn(C2COC(CO)S2)c(=O)[nH]c1=O` (configuration not stated), the IC50 was greater than 100 µg/mL.

For `Nc1nc(=O)n(C2COC(CO)S2)cc1F` (configuration not stated), the IC50 turned out to be 2.5 µg/mL (≈ 10.1 µM).

As for `O=c1ccn(C2COC(CO)S2)c(=O)[nH]1` (configuration not stated), the IC50 is greater than 100 µg/mL.

With `Cc1cn([C@@H]2COC(CO)S2)c(=O)[nH]c1=O` (some centres not stated), the IC50 is greater than 100 µg/mL.

Take `Nc1nc(O)c2ncn(C3COC(CO)S3)c2n1` (configuration not stated): the IC50 was greater than 100 µg/mL.

Take `Nc1ncnc2c1ncn2[C@@H]1CO[C@H](CO)S1`: the IC50 stood at 50 µg/mL (≈ 197 µM).

With `Cc1cn([C@H]2C[C@H](N=[N+]=[N-])[C@@H](CO)O2)c(=O)[nH]c1=O` [ZIDOVUDINE], the IC50 amounted to 0.06 µg/mL (≈ 0.225 µM).
